In patent US20250230193A1, “CYCLIC COMPOUND HAVING SELECTIVE KRAS INHIBITORY EFFECT ON HRAS AND NRAS” (CHUGAI SEIYAKU KABUSHIKI KAISHA, priority 2022, published 2025):

How the values were obtained:
[1] = biological target: GDP-bound HRAS wild-type protein (Homo sapiens, UniProt P01112); assay: Binding to HRAS by surface plasmon resonance (SPR), Single Cycle Kinetics; conditions: SPR; KD ratio class
[2] = test system: human lung cancer strain NCI-H441; assay: cells; conditions: NCI-H441, 96 h, read-out: NCI-H441 IC50 (nM)
[3] = biological target: GDP-bound NRAS wild-type protein (Homo sapiens, UniProt P01111); assay: Binding to NRAS by surface plasmon resonance (SPR), Single Cycle Kinetics; conditions: SPR; KD ratio class
Sequence of GDP-bound NRAS wild-type protein (P01111 whole entry): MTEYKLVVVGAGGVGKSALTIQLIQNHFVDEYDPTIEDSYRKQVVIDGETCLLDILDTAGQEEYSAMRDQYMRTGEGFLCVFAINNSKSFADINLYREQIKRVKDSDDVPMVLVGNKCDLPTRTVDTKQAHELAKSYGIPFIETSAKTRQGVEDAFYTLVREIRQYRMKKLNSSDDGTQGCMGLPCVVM

Sequence of GDP-bound HRAS wild-type protein (P01112 whole entry): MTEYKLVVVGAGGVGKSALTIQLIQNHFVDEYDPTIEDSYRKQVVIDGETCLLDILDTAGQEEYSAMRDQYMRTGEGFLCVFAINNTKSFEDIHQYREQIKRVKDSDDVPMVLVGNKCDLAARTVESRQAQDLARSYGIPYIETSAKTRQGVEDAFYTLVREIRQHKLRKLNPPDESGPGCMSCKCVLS

Compound | IC50 [2] [nM] | HRAS/KRAS (ratio of KD value for GDP-bound HRAS wild-type protein to KD value for KRAS) [1] | NRAS/KRAS (ratio of KD value for GDP-bound NRAS wild-type protein to KD value for KRAS) [3]
CCCCCC[C@H]1C(=O)N[C@@H]([C@@H](C)CC)C(=O)N(C)CC(=O)N(C)[C@H]2C/C=C\CCN(C2=O)[C@@H](Cc2ccc(C(F)(F)F)cc2)C(=O)N(C)CC(=O)N[C@@H](CCc2ccc3sccc3c2)C(=O)N2C[C@H](OCC)C[C@H]2C(=O)NC2(CCC2)C(=O)N(C)[C@@H](C2CCCC2)C(=O)N(C)[C@H](C(=O)N(C)C)CC(=O)N1C [PP1259] | 62 | A (a compound having 10 or more and less than 20 is denoted as A) | A (a compound having 10 or more and less than 20 is denoted as A)
CCO[C@@H]1C[C@H]2C(=O)NC3(CCC3)C(=O)N(C)[C@@H](C(CC)CC)C(=O)N(C)[C@H](C(=O)N(C)C)CC(=O)N(C)[C@@H](CC3CCCC3)C(=O)N[C@@H]([C@@H](C)CC)C(=O)N(C)CC(=O)N(C)[C@H]3C/C=C\CCN(C3=O)[C@@H](CC3CCC(F)(F)CC3)C(=O)N(C)CC(=O)N[C@@H](CCc3cc(F)c(C(F)(F)F)c(F)c3)C(=O)N2C1 [PP1431] | 41.2 | A (a compound having 10 or more and less than 20 is denoted as A) | AA (a compound having 20 or more is denoted as AA)
CCO[C@@H]1C[C@H]2C(=O)NC3(CCC3)C(=O)N(C)[C@@H](C3CCCC3)C(=O)N(C)[C@@H](C(=O)N(C)C)CC(=O)N(C)[C@@H](CC)C(=O)N[C@@H]([C@@H](C)CC)C(=O)N(C)CC(=O)N(C)[C@H]3C/C=C\CCN(C3=O)[C@@H](Cc3ccc(C(F)(F)F)cc3)C(=O)N(C)CC(=O)N[C@@H](CCc3cc(F)c(C(F)(F)F)c(F)c3)C(=O)N2C1 [PP1234] | 398 | C (A compound having a KD ratio of 0.1 or more and less than 3 is denoted as C) | B (a compound having 3 or more and less than 10 is denoted as B)
CCO[C@@H]1C[C@H]2C(=O)NC3(CCC3)C(=O)N(C)[C@@H](C(CC)CC)C(=O)N(C)[C@H](C)CC(=O)N(C)[C@@H](CC3CC3)C(=O)N[C@@H]([C@@H](C)CC)C(=O)N(C)CC(=O)N(C)[C@H]3C/C=C\CCN(C3=O)[C@@H](Cc3ccc(F)cc3)C(=O)N(C)CC(=O)N[C@@H](CCc3cc(F)c(C(F)(F)F)c(F)c3)C(=O)N2C1 [PP1521] | 173 | B (a compound having 3 or more and less than 10 is denoted as B) | A (a compound having 10 or more and less than 20 is denoted as A)
CCO[C@@H]1C[C@H]2C(=O)NC3(CCC3)C(=O)N(C)[C@@H](C3CCCC3)C(=O)N(C)[C@H](C(=O)N(C)C)CC(=O)N(C)[C@@H](CC)C(=O)N[C@@H]([C@@H](C)CC)C(=O)N(C)CC(=O)N(C)[C@H]3C/C=C\CCN(C3=O)[C@@H](Cc3ccc(C(F)(F)F)cc3)C(=O)N(C)CC(=O)N[C@@H](CCc3ccc(Cl)c(Cl)c3)C(=O)N2C1 [PP1249] | 55.4 | A (a compound having 10 or more and less than 20 is denoted as A) | A (a compound having 10 or more and less than 20 is denoted as A)
CCO[C@@H]1C[C@H]2C(=O)NC3(CCC3)C(=O)N(C)[C@@H](C3CCCC3)C(=O)N(C)[C@H](C)CC(=O)N(C)[C@@H](CC3CC3)C(=O)N[C@@H]([C@@H](C)CC)C(=O)N(C)CC(=O)N(C)[C@H]3C/C=C\CCN(C3=O)[C@@H](Cc3ccc(F)cc3)C(=O)N(C)CC(=O)N[C@@H](CCc3cc(F)c(C(F)(F)F)c(F)c3)C(=O)N2C1 [PP1490] | 48.9 | B (a compound having 3 or more and less than 10 is denoted as B) | B (a compound having 3 or more and less than 10 is denoted as B)
CCO[C@@H]1C[C@H]2C(=O)NC3(CCC3)C(=O)N(C)[C@@H](C3CCCC3)C(=O)N(C)[C@H](C(=O)N3CCCCC3)CC(=O)N(C)[C@@H](CC(C)C)C(=O)N[C@@H]([C@@H](C)CC)C(=O)N(C)CC(=O)N(C)[C@H]3C/C=C\CCN(C3=O)[C@@H](Cc3ccc(C(F)(F)F)cc3)C(=O)N(C)CC(=O)N[C@@H](CCc3cc(F)c(C(F)(F)F)c(F)c3)C(=O)N2C1 [PP1290] | 15.4 | A (a compound having 10 or more and less than 20 is denoted as A) | AA (a compound having 20 or more is denoted as AA)
CCC[C@H]1C(=O)N[C@@H]([C@@H](C)CC)C(=O)N(C)CC(=O)N(C)[C@H]2C/C=C\CCN(C2=O)[C@@H](Cc2ccc(C(F)(F)F)cc2)C(=O)N(C)CC(=O)N[C@@H](CCc2ccc3sccc3c2)C(=O)N2C[C@H](OCC)C[C@H]2C(=O)NC2(CCC2)C(=O)N(C)[C@@H](C2CCCC2)C(=O)N(C)[C@H](C(=O)N(C)C)CC(=O)N1C [PP1256] | 69 | A (a compound having 10 or more and less than 20 is denoted as A) | A (a compound having 10 or more and less than 20 is denoted as A)
CCO[C@@H]1C[C@H]2C(=O)NC3(CCC3)C(=O)N(C)[C@@H](C3CCCC3)C(=O)N(C)[C@H](C(=O)N3CCC3)CC(=O)N(C)[C@@H](CC)C(=O)N[C@@H]([C@@H](C)CC)C(=O)N(C)CC(=O)N(C)[C@H]3C/C=C\CCN(C3=O)[C@@H](CC3CCCCC3)C(=O)N(C)CC(=O)N[C@@H](CCc3cc(F)c(C(F)(F)F)c(F)c3)C(=O)N2C1 [PP1445] | 92.8 | A (a compound having 10 or more and less than 20 is denoted as A) | A (a compound having 10 or more and less than 20 is denoted as A)
CCO[C@@H]1C[C@H]2C(=O)NC3(CCC3)C(=O)N(C)[C@@H](C3CCCC3)C(=O)N(C)[C@H](C(=O)N(C)C)CC(=O)N(C)[C@@H](CC3CC3)C(=O)N[C@@H]([C@@H](C)CC)C(=O)N(C)CC(=O)N(C)[C@H]3C/C=C\CCN(C3=O)[C@@H](Cc3ccc(F)cc3C)C(=O)N(C)CC(=O)N[C@@H](CCc3ccc(Cl)c(Cl)c3)C(=O)N2C1 [PP1476] | 216 | B (a compound having 3 or more and less than 10 is denoted as B) | A (a compound having 10 or more and less than 20 is denoted as A)

The next lines start with results.

IC50 [2] [nM] | Compound | HRAS/KRAS (ratio of KD value for GDP-bound HRAS wild-type protein to KD value for KRAS) [1] | NRAS/KRAS (ratio of KD value for GDP-bound NRAS wild-type protein to KD value for KRAS) [3]
40.4 | CCO[C@@H]1C[C@H]2C(=O)NC3(CCC3)C(=O)N(C)[C@@H](C(CC)CC)C(=O)N(C)[C@H](C(=O)N(C)C)CC(=O)N(C)[C@@H](COC)C(=O)N[C@@H]([C@@H](C)CC)C(=O)N(C)CC(=O)N(C)[C@H]3C/C=C\CCN(C3=O)[C@@H](Cc3ccc(C(F)(F)F)cc3)C(=O)N(C)CC(=O)N[C@@H](CCc3ccc(C(F)(F)F)c(OC)c3)C(=O)N2C1 [PP1213] | A (a compound having 10 or more and less than 20 is denoted as A) | AA (a compound having 20 or more is denoted as AA)
1.8 | CCO[C@@H]1C[C@H]2C(=O)NC3(CC(C)(C)C3)C(=O)N(C)[C@@H](C3CCCC3)C(=O)N(C)[C@H](C(=O)N(C)C)CC(=O)N(C)[C@@H](CC)C(=O)N[C@@H]([C@@H](C)CC)C(=O)N(C)CC(=O)N(C)[C@H]3C/C=C\CCN(C3=O)[C@@H](Cc3ccc(C(F)(F)F)cc3)C(=O)N(C)CC(=O)N[C@@H](CCc3ccc(C(F)(F)F)c(OC)c3)C(=O)N2C1 [PP1559] | A (a compound having 10 or more and less than 20 is denoted as A) | A (a compound having 10 or more and less than 20 is denoted as A)
29.9 | CCO[C@@H]1C[C@H]2C(=O)NC3(CCC3)C(=O)N(C)[C@@H](C3CCCC3)C(=O)N(C)[C@H](C(=O)N3CCOCC3)CC(=O)N(C)[C@@H](CC3CCCCC3)C(=O)N[C@@H]([C@@H](C)CC)C(=O)N(C)CC(=O)N(C)[C@H]3C/C=C\CCN(C3=O)[C@@H](Cc3ccc(C(F)(F)F)cc3)C(=O)N(C)CC(=O)N[C@@H](CCc3cc(F)c(C(F)(F)F)c(F)c3)C(=O)N2C1 [PP1418] | A (a compound having 10 or more and less than 20 is denoted as A) | AA (a compound having 20 or more is denoted as AA)
3.6 | CCO[C@@H]1C[C@H]2C(=O)NC3(CCC3)C(=O)N(C)[C@@H](C3CCCC3)C(=O)N(C)[C@H](C(=O)N3CCOCC3)CC(=O)N(C)[C@@H](CC)C(=O)N[C@@H]([C@@H](C)CC)C(=O)N(C)CC(=O)N(C)[C@H]3C[C@@H](C)[C@@H](C)CN(C3=O)[C@@H](Cc3ccc(C(F)(F)F)cc3)C(=O)N(C)CC(=O)N[C@@H](CCc3cc(F)c(C(F)(F)F)c(F)c3)C(=O)N2C1 [PP1354] | B (a compound having 3 or more and less than 10 is denoted as B) | A (a compound having 10 or more and less than 20 is denoted as A)
31.6 | CCO[C@@H]1C[C@H]2C(=O)NC3(CC(C)(C)C3)C(=O)N(C)[C@@H](C(CC)CC)C(=O)N3CCC[C@@H]3CC(=O)N(C)[C@@H](CC)C(=O)N[C@@H]([C@@H](C)CC)C(=O)N(C)CC(=O)N(C)[C@H]3C/C=C\CCN(C3=O)[C@@H](Cc3ccc(C(F)(F)F)cc3)C(=O)N(C)CC(=O)N[C@@H](CCc3cc(F)c(C(F)(F)F)c(F)c3)C(=O)N2C1 [PP1605] | A (a compound having 10 or more and less than 20 is denoted as A) | A (a compound having 10 or more and less than 20 is denoted as A)
